From article PMC7363035 (ACS infectious diseases, 2020)
Read-outs that look alike come from different tables or passages of the source. Marks after values point to notes of the source that are not given here.

Assays:
[1] = Log D in octanol/PBS pH 7.4; format: physicochemical
[2] = Mouse pharmacokinetics after a single oral dose; format: in vivo
Solubility in PBS pH 7.4 = format: physicochemical
Mouse liver microsome = format: in vitro ADME; conditions: mouse liver microsomes; data generated via Medicines for Malaria Venture
[3] = cited from earlier work
P. berghei = conditions: cited from earlier work
[4] = human liver microsomes; cited from earlier work
[5] = cited from earlier work; remark: listed apart in the source
[6] = single dose of 50 mg/kg by oral gavage, male CD-1 mice
[7] = male, CD-1, mouse, plasma, po, 50 mg/kg

SMILES | Log D in octanol/PBS; pH 7.4 ([1]; data generated via Medicines for Malaria Venture) | fold lower systemic exposure than 8c or 8n ([2]; mouse PK study with oral dosing) | AUClast [2, 6] | Cmax [2, 6] | Tmax [2, 6] | Solubility in PBS pH 7.4 (Solubility in PBS pH 7.4) | MLM CLint (Mouse liver microsome) | MLM T1/2 (Mouse liver microsome) | Solubility in PBS pH 7.4 [3] | cures (P. berghei; Experiment 1, PO 6 mg/kg/day (4 days), female Swiss Webster mice, cured = parasitemia undetectable at day 30) | HLM CLint [4] | HLM T1/2 [4] | logD [1] | AUC(0-t) [2, 7] | Tmax [2, 7] | Log D in octanol/PBS; pH 7.4 [5] | effective single dose in the P. berghei model (P. berghei; single dose)
O=C(O[C@@H]1CCC[C@]2(C1)OOC1(O2)C2CC3CC(C2)CC1C3)N1CCNCC1 (stereo partly drawn) [8e, (1R,3”R)-Dispiro[adamantane-2,3’-[1,2,4]trioxolane-5’,1”-cyclohexan]-3”-yl piperazine-1-carboxylate] | 3.25 | ~ three-fold | 1070 ± 127 ng·h/mL | 223 ± 25 ng/mL | 2 h | 157.0 μM | 321 µL/min/mg | 4.3 min | – | – | – | – | – | – | – | – | –
CC(C)(N)CNC(=O)C[C@H]1CC[C@]2(CC1)OO[C@]1(O2)C2CC3CC(C2)CC1C3 [OZ277, arterolane] | – | – | – | – | – | – | – | – | 504 μM | 4/5 | <7 µL/min/mg | >60 min | – | – | – | – | –
c1cc([C@H]2CC[C@]3(CC2)OO[C@]2(O3)C3CC4CC(C3)CC2C4)ccc1OCCN1CCOCC1 [OZ439, artefenomel] | – | – | – | – | – | – | – | – | 0.181^b μM | – | – | – | 5.81 | 52600 ± 4810 ng·h/mL | 2 h | 5.5 | 20 mg/kg
